In experiment [1] the test system is differentiated L6-myotubes. In words: Glucose uptake screen (Biological example 1 of WO 2019/053427). In kind it is cell-based. The settings on record: compound at 10 μM, activity relative to isoproterenol at 10 μM; for Emax at 10 µM: read-out: Biological example 1 of WO 2019/053427 (GU). The method in brief:
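Uptake was read out as ^3H-2-deoxyglucose (50 nM, 10 min) radioactivity in NaOH lysates. Beforehand, overnight-starved, differentiated L6 myotubes received compound at 1×10^−5 M with ICI-118551 present for 1 h 40 min, followed by fresh agonist for a further 20 min in glucose-free medium.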

Experiment [2] relates to differentiated L6-myotubes. In words: cAMP production relative to isoprenaline (Biological example 2 of WO 2019/053427). The conditions noted are these: compound at 10 μM, activity relative to isoproterenol at 10 μM; for Emax at 10 µM: 0.25 h. The format is cell-based. The method in brief:
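Values are cAMP levels relative to isoprenaline at equal concentration (final 1×10^−5 M for both). Stimulation lasted 15 min in differentiated L6 myotubes, using HBSS buffer (pH 7.4) containing 1 mM IBMX, 5 mM HEPES and 1% BSA.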

Some results are limits rather than exact numbers.

Consider `CCC[C@@H]1CC[C@@H]([C@@H](O)c2cccc(F)c2)N1` [Compound 133, (S)-[(2S,5R)-5-propyl-2-pyrrolidinyl](m-fluorophenyl)methanol], for which the Emax at 10 µM in experiment [1] was 50 to 75%; in experiment [2] it was below 25%.

Regarding `CC(C)(C)NCC(O)c1ccncc1O` (centres unmarked) [Compound 134, 4-[2-(tert-butylamino)-1-hydroxyethyl]-3-pyridinol], the Emax at 10 µM in experiment [1] was above 75%; in experiment [2], below 25%.

With `CCC[C@H]1CCC[C@H]([C@H](O)c2ccccc2Cl)N1` [Compound 135, (R)-[(2R,6S)-6-propyl-2-piperidyl](o-chlorophenyl)methanol], the Emax at 10 µM in experiment [1] is 25 to 50%; in experiment [2], below 25%.

Turning to `CCC[C@@H]1CCC[C@@H]([C@H](O)c2cccc(O)c2)N1` [Compound 136, (R)-[(2S,6R)-6-propyl-2-piperidyl](m-hydroxyphenyl)methanol], the Emax at 10 µM in experiment [1] was above 75%; in experiment [2] it was below 25%.

Regarding `CCC[C@@H]1CCC[C@H]([C@@H](O)c2cccc(O)c2)N1` [Compound 137, (S)-[(2R,6R)-6-propyl-2-piperidyl](m-hydroxyphenyl)methanol], the Emax at 10 µM in experiment [1] was 25 to 50%; in experiment [2], below 25%.

In the case of `CC(C)(C)NC[C@H](O)c1cncc(Cl)c1` [Compound 138, (R)-2-(tert-butylamino)-1-(5-chloro-3-pyridyl)-1-ethanol], the Emax at 10 µM in experiment [1] and in experiment [2] was above 75% in each case.

Turning to `CCC[C@H]1CCC[C@H]([C@@H](O)c2cncc(F)c2)N1` [Compound 139, (S)-[(2R,6S)-6-propyl-2-piperidyl](5-fluoro-3-pyridyl)methanol], the Emax at 10 µM in experiment [1] and in experiment [2] was below 25% in each case.

Regarding `CCC[C@H]1CCC[C@H]([C@H](O)c2cncc(F)c2)N1` [Compound 140, (R)-[(2R,6S)-6-propyl-2-piperidyl](5-fluoro-3-pyridyl)methanol], the Emax at 10 µM in experiment [1] and in experiment [2] was below 25% in each case.

For the compound `CCC[C@@H]1CC[C@H]([C@H](O)c2cccc(Cl)c2)N1` [Compound 141, (R)-[(2R,5R)-5-propyl-2-pyrrolidinyl](m-chlorophenyl)methanol], the Emax at 10 µM in experiment [1] was 50 to 75%; in experiment [2], below 25%.

Consider `CC1(C)CC[C@@H]([C@H](O)c2cccc(O)c2)N1` [Compound 142, m-{(R)-[(S)-5,5-dimethyl-2-pyrrolidinyl]hydroxymeth-yl}phenol], for which the Emax at 10 µM in experiment [1] is 25 to 50%; in experiment [2] it was below 25%.

For the compound `CC1(C)CC[C@@H]([C@@H](O)c2cccc(O)c2)N1` [Compound 143, m-{(S)-[(S)-5,5-dimethyl-2-pyrrolidinyl]hydroxymeth-yl}phenol], the Emax at 10 µM in experiment [1] and in experiment [2] was below 25% in each case.

In the case of `CC1(C)CC[C@@H]([C@H](O)c2cccc(F)c2)N1` [Compound 144, (R)-[(S)-5,5-dimethyl-2-pyrrolidinyl](m-fluorophenyl)methanol], the Emax at 10 µM in experiment [1] and in experiment [2] was below 25% in each case.

`CC1(C)CC[C@@H]([C@@H](O)c2cccc(F)c2)N1` [Compound 145, (S)-[(S)-5,5-dimethyl-2-pyrrolidinyl](m-fluorophenyl)methanol]: the Emax at 10 µM in experiment [1] was 25 to 50%; in experiment [2], below 25%.

As to `CC(C)(C)NC[C@H](O)c1ncccc1Cl` [Compound 146, (S)-2-(tert-butylamino)-1-(3-chloro-2-pyridyl)-1-ethanol], the Emax at 10 µM in experiment [1] is 25 to 50%; in experiment [2] it was below 25%.

For `CC(C)(C)NC[C@H](O)c1ccc(Cl)cn1` [Compound 147, (S)-2-(tert-butylamino)-1-(5-chloro-2-pyridyl)-1-ethanol], the values for the Emax at 10 µM in experiment [1] and in experiment [2] were 25 to 50% and below 25%, respectively.

On to `CCC[C@@H]1CC[C@H]([C@H](O)c2ccccc2Cl)N1` [Compound 148, (R)-[(2R,5R)-5-propyl-2-pyrrolidinyl](o-chlorophenyl)methanol], for which the Emax at 10 µM was above 75% in experiment [1] and below 25% in experiment [2].

Consider `CC(C)(C)NC[C@H](O)c1ccc(F)c(N)c1F` [Compound 149, (R)-1-(3-amino-2,4-difluorophenyl)-2-(tert-butylamino)-1-ethanol], for which the Emax at 10 µM was above 75% in experiment [1] and 25 to 50% in experiment [2].

Take `Cc1c(F)cccc1[C@@H](O)CNC(C)(C)C` [Compound 150, (R)-2-(tert-butylamino)-1-(3-fluoro-2-tolyl)-1-ethanol]: the figures for the Emax at 10 µM in experiment [1] and in experiment [2] were above 75% and 25 to 50%, respectively.

In the case of `CC1(C)CC[C@H]([C@@H](O)c2ccccc2Cl)N1` [Compound 151, (S)-[(R)-5,5-dimethyl-2-pyrrolidinyl](o-chlorophenyl)methanol], the “Biological example 1 of WO 2019/053427 (GU)” value in experiment [1] is reported as “− (less than 25%)”. The same compound displayed an Emax at 10 µM in experiment [2] below 25%.

Regarding `CC1(C)CC[C@H]([C@@H](O)c2ccccc2Cl)N1` [Compound 152], in experiment [1], the “Biological example 1 of WO 2019/053427 (GU)” value is “+++ (more than 75% of that of isoproterenol at 10 μM)”. Moreover, in experiment [2], the “Biological example of WO 2019/053427 (cAMP)” value is “− (less than 25%)”.

Consider `CC1(C)CC[C@H]([C@@H](O)c2cccc(Cl)c2)N1` [Compound 153, (S)-[(R)-5,5-dimethyl-2-pyrrolidinyl](m-chlorophenyl)methanol], for which the Emax at 10 µM in experiment [1] is 25 to 50%; in experiment [2], below 25%.

As to `CC1(C)CC[C@H]([C@H](O)c2cccc(Cl)c2)N1` [Compound 154, (R)-[(R)-5,5-dimethyl-2-pyrrolidinyl](m-chlorophenyl)methanol], the values for the Emax at 10 µM in experiment [1] and in experiment [2] were above 75% and below 25%, respectively.

Regarding `CCC[C@H]1CCC[C@H]([C@@H](O)c2cccc(O)c2)N1` [Compound 155, (S)-[(2R,6S)-6-propyl-2-piperidyl](m-hydroxyphenyl)methanol], the Emax at 10 µM in experiment [1] and in experiment [2] was below 25% each time.

As to `CC1(C)CC[C@H]([C@@H](O)c2cncc(F)c2)N1` [Compound 156, (S)-[(R)-5,5-dimethyl-2-pyrrolidinyl](5-fluoro-3-pyridyl)methanol], the Emax at 10 µM in experiment [1] and in experiment [2] was below 25% each time.

Turning to `CC1(C)CC[C@H]([C@H](O)c2cncc(F)c2)N1` [Compound 157, (R)-[(R)-5,5-dimethyl-2-pyrrolidinyl](5-fluoro-3-pyridyl)methanol], the Emax at 10 µM in experiment [1] was above 75%; in experiment [2], below 25%.

As for `CCCC1(CCC)CC[C@H]([C@@H](O)c2cccc(F)c2)N1` [Compound 158, (S)-[(R)-5,5-dipropyl-2-pyrrolidinyl](m-fluorophenyl)methanol], the Emax at 10 µM in experiment [1] and in experiment [2] was below 25% throughout.

Take `CCCC1(CCC)CC[C@H]([C@H](O)c2cccc(F)c2)N1` [Compound 159, (R)-[(R)-5,5-dipropyl-2-pyrrolidinyl](m-fluorophenyl)methanol]: the Emax at 10 µM in experiment [1] is 50 to 75%; in experiment [2] it was below 25%.

`CCC[C@@H]1CC[C@H]([C@H](O)c2cncc(F)c2)N1` [Compound 160, (R)-[(2R,5R)-5-propyl-2-pyrrolidinyl](5-fluoro-3-pyridyl)methanol]: the “Biological example 1 of WO 2019/053427 (GU)” value in experiment [1] was “+++ (more than 75% of that of isoproterenol at 10 μM)”. The Emax at 10 µM in experiment [2] was below 25%.

For the compound `CCC[C@@H]1CC[C@H]([C@H](O)c2cncc(F)c2)N1` [Compound 161], in experiment [1], the “Biological example 1 of WO 2019/053427 (GU)” value is “+ (between 50 and 25%)”. Besides, the “Biological example of WO 2019/053427 (cAMP)” value in experiment [2] is “− (less than 25%)”.

For the compound `CC1(C)CCC[C@H]([C@H](O)c2ccccc2Cl)N1` [Compound 162, (R)-[(R)-6,6-dimethyl-2-piperidyl](o-chlorophenyl)methanol], the Emax at 10 µM in experiment [1] is 25 to 50%; in experiment [2], below 25%.

Turning to `CC1(C)CCC[C@H]([C@@H](O)c2ccccc2Cl)N1` [Compound 163, (S)-[(R)-6,6-dimethyl-2-piperidyl](o-chlorophenyl)methanol], the Emax at 10 µM is above 75% in experiment [1] and below 25% in experiment [2].

As to `CC1(C)CCC[C@H]([C@@H](O)c2cccc(Cl)c2)N1` [Compound 164, (S)-[(R)-6,6-dimethyl-2-piperidyl](m-chlorophenyl)methanol], the results for the Emax at 10 µM in experiment [1] and in experiment [2] were 50 to 75% and below 25%, respectively.

Turning to `CC1(C)CCC[C@H]([C@H](O)c2cccc(Cl)c2)N1` [Compound 165, (R)-[(R)-6,6-dimethyl-2-piperidyl](m-chlorophenyl)methanol], the Emax at 10 µM was 25 to 50% in experiment [1] and below 25% in experiment [2].

Consider `CC1(C)CC[C@H]([C@@H](O)c2cncc(O)c2)N1` [Compound 166, 5-{(S)-[(R)-5,5-dimethyl-2-pyrrolidinyl]hydroxymeth-yl}-3-pyridinol], for which the Emax at 10 µM in experiment [1] was 25 to 50%; in experiment [2], below 25%.

For `CC1(C)CC[C@H]([C@H](O)c2cncc(O)c2)N1` [Compound 167, 5-{(R)-[(R)-5,5-dimethyl-2-pyrrolidinyl]hydroxymeth-yl}-3-pyridinol], the Emax at 10 µM in experiment [1] was 50 to 75%; in experiment [2] it was below 25%.

With `O[C@H](c1cccc(F)c1)[C@H]1CCC2(CCCC2)N1` [Compound 168], the figures for the Emax at 10 µM in experiment [1] and in experiment [2] were 50 to 75% and 25 to 50%, respectively.

On to `O[C@@H](c1cccc(F)c1)[C@H]1CCC2(CCCC2)N1` [Compound 169, (S)-{(R)-1-aza-2-spiro[4.4]nonyl}(m-fluorophenyl)methanol], for which the Emax at 10 µM in experiment [1] and in experiment [2] was below 25% each time.

(Values after patent US20260256751A1, “COMBINATION OF BETA-2-ADRENERGIC RECEPTOR AGONISTS AND GLP-1 RECEPTOR AGONISTS FOR USE IN TREATING HYPERGLYCAEMIA” (ATROGI AB, priority 2023, published 2026).)
